Measured values as given in patent US11807835B2, “Detergent compositions containing a stabilized enzyme by phosphonates” (ECOLAB USA INC., priority 2016, dated 2023).

Test system: protease
Assay: Protease activity retention in detergent use solution (4000 ppm, 5 GPG water; peptidyl substrate, glycine buffer pH 9.0)
Format: biochemical
Settings: for Relative Protease Enzyme Activity: use solution at 120° F.
Description: The enzyme activities in the detergents with different phosphonate levels were tested at 4000 ppm in 5 grains per gallon (GPG) water at 120° F. with various time points collected up to 4 hours, after a use solution was generated from the detergent composition. During the tests, the samples at different time points were collected and immediately frozen in an acetone/dry ice bath and stored in −80° C. before the activity of the enzyme was evaluated. For the use of such an assay, t=0 min was the reference point for 100% enzyme activity.
Assays of enzyme activity in formulations (% retention) were conducted to simulate a presoak condition in a beaker using the chemistry, temperature, and pH conditions relevant to manual warewash or presoak applications. Enzyme activity is an indicator of the stability of the enzyme in the detergent, specifically in an aqueous use solution within a sump (which is under conditions of high pH, temperature and dilution).
The analysis by protease assay was conducted as follows. For the assays, a detergent composition was used to generate an aqueous use solution evaluated herein.
Enzyme activity under presoak or manual warewash conditions was traced quantitatively using a standard protease assay. Samples were prepared under bench top conditions, whereby the use solution from a detergent composition or detergent was obtained and maintained at a presoak or manual warewash temperature in a stirring water bath. After the time course for assessing enzyme stability is initiated, aliquots were taken at various time points and flash-frozen. A time=0 sample was prepared for each series by dissolving the detergent formulation at room temperature, mixing thoroughly, and flash freezing. Samples were thawed and diluted as necessary in an assay buffer usually for use in the protease assay. A glycine buffer at pH 9.0 is used here. The assay monitored the direct reaction of the protease on a small, commercially available peptidyl substrate, with liberation of the product providing correlation to the active enzyme content. The product was detected using a plate reader with an appreciable dynamic range (upper absorbance limit of the instrument >3.5). Enzyme activity levels were assessed relative to a calibration curve with average values for replicate tests used to map protease stability under presoak or manual warewash use conditions. Enzyme retention at each time point was calculated as the % enzyme activity relative to the time=0 sample.

[1] = All Ash formula, phosphonate 0.3 wt-%, time 0 min
[2] = All Ash formula, phosphonate 0.3 wt-%, time 5 min
[3] = All Ash formula, phosphonate 0.3 wt-%, time 10 min
[4] = All Ash formula, phosphonate 0.3 wt-%, time 20 min
[5] = All Ash formula, phosphonate 0.3 wt-%, time 40 min
[6] = All Ash formula, phosphonate 0.3 wt-%, time 60 min
[7] = All Ash formula, phosphonate 0.3 wt-%, time 90 min
[8] = All Ash formula, phosphonate 0.3 wt-%, time 120 min
[9] = All Ash formula, phosphonate 0.3 wt-%, time 150 min
[10] = All Ash formula, phosphonate 0.3 wt-%, time 180 min
[11] = All Ash formula, phosphonate 0.3 wt-%, time 210 min
[12] = All Ash formula, phosphonate 0.3 wt-%, time 240 min
[13] = base formula, phosphonate 0.3 wt-%, time 0 min
[14] = base formula, phosphonate 0.3 wt-%, time 5 min
[15] = base formula, phosphonate 0.3 wt-%, time 10 min
[16] = base formula, phosphonate 0.3 wt-%, time 20 min
[17] = base formula, phosphonate 0.3 wt-%, time 40 min
[18] = base formula, phosphonate 0.3 wt-%, time 60 min
[19] = base formula, phosphonate 0.3 wt-%, time 90 min
[20] = base formula, phosphonate 0.3 wt-%, time 120 min
[21] = base formula, phosphonate 0.3 wt-%, time 150 min
[22] = base formula, phosphonate 0.3 wt-%, time 180 min
[23] = base formula, phosphonate 0.3 wt-%, time 210 min
[24] = base formula, phosphonate 0.3 wt-%, time 240 min
[25] = base formula, phosphonate 0.6 wt-%, time 0 min
[26] = base formula, phosphonate 0.6 wt-%, time 5 min
[27] = base formula, phosphonate 0.6 wt-%, time 10 min
[28] = base formula, phosphonate 0.6 wt-%, time 20 min
[29] = base formula, phosphonate 0.6 wt-%, time 40 min
[30] = base formula, phosphonate 0.6 wt-%, time 60 min
[31] = base formula, phosphonate 0.6 wt-%, time 90 min
[32] = base formula, phosphonate 0.6 wt-%, time 120 min
[33] = base formula, phosphonate 0.6 wt-%, time 150 min
[34] = base formula, phosphonate 0.6 wt-%, time 180 min
[35] = base formula, phosphonate 0.6 wt-%, time 210 min
[36] = base formula, phosphonate 0.6 wt-%, time 240 min
[37] = base formula, phosphonate at 0.1% elemental phosphorus, time 0 min
[38] = base formula, phosphonate at 0.1% elemental phosphorus, time 5 min
[39] = base formula, phosphonate at 0.1% elemental phosphorus, time 10 min
[40] = base formula, phosphonate at 0.1% elemental phosphorus, time 20 min
[41] = base formula, phosphonate at 0.1% elemental phosphorus, time 40 min
[42] = base formula, phosphonate at 0.1% elemental phosphorus, time 60 min
[43] = base formula, phosphonate at 0.1% elemental phosphorus, time 90 min
[44] = base formula, phosphonate at 0.1% elemental phosphorus, time 120 min
[45] = base formula, phosphonate at 0.1% elemental phosphorus, time 150 min
[46] = base formula, phosphonate at 0.1% elemental phosphorus, time 180 min
[47] = base formula, phosphonate at 0.1% elemental phosphorus, time 210 min
[48] = base formula, phosphonate at 0.1% elemental phosphorus, time 240 min

O=P(O)(O)CN(CP(=O)(O)O)CP(=O)(O)O [ATMP, Aminotri (methylene phosphonic acid)]
Relative Protease Enzyme Activity [1]: 100.00% | Relative Protease Enzyme Activity [2]: 84.60% | Relative Protease Enzyme Activity [3]: 75.67% | Relative Protease Enzyme Activity [4]: 53.32% | Relative Protease Enzyme Activity [5]: 33.78% | Relative Protease Enzyme Activity [6]: 22.22% | Relative Protease Enzyme Activity [7]: 15.40% | Relative Protease Enzyme Activity [8]: 11.13% | Relative Protease Enzyme Activity [9]: 9.39% | Relative Protease Enzyme Activity [10]: 7.41% | Relative Protease Enzyme Activity [11]: 6.17% | Relative Protease Enzyme Activity [12]: 5.58% | protease stability in all ash formula (all ash formula, versus same composition with PBTC or HEDP without amine(s), FIG. 2D): more stable | Relative Protease Enzyme Activity [13]: 100.00% | Relative Protease Enzyme Activity [14]: 94.95% | Relative Protease Enzyme Activity [15]: 94.68% | Relative Protease Enzyme Activity [16]: 89.76% | Relative Protease Enzyme Activity [17]: 87.06% | Relative Protease Enzyme Activity [18]: 83.93% | Relative Protease Enzyme Activity [19]: 80.79% | Relative Protease Enzyme Activity [20]: 76.31% | Relative Protease Enzyme Activity [21]: 73.96% | Relative Protease Enzyme Activity [22]: 70.37% | Relative Protease Enzyme Activity [23]: 65.72% | Relative Protease Enzyme Activity [24]: 63.75% | Relative Protease Enzyme Activity [25]: 100.00% | Relative Protease Enzyme Activity [26]: 91.70% | Relative Protease Enzyme Activity [27]: 102.58% | Relative Protease Enzyme Activity [28]: 100.03% | Relative Protease Enzyme Activity [29]: 97.16% | Relative Protease Enzyme Activity [30]: 92.31% | Relative Protease Enzyme Activity [31]: 89.99% | Relative Protease Enzyme Activity [32]: 91.60% | Relative Protease Enzyme Activity [33]: 86.21% | Relative Protease Enzyme Activity [34]: 89.08% | Relative Protease Enzyme Activity [35]: 89.86% | Relative Protease Enzyme Activity [36]: 82.33% | Relative Protease Enzyme Activity [37]: 100.00% | Relative Protease Enzyme Activity [38]: 122.55% | Relative Protease Enzyme Activity [39]: 116.65% | Relative Protease Enzyme Activity [40]: 115.14% | Relative Protease Enzyme Activity [41]: 107.73% | Relative Protease Enzyme Activity [42]: 102.70% | Relative Protease Enzyme Activity [43]: 111.18% | Relative Protease Enzyme Activity [44]: 106.19% | Relative Protease Enzyme Activity [45]: 96.80% | Relative Protease Enzyme Activity [46]: 93.35% | Relative Protease Enzyme Activity [47]: 90.51% | Relative Protease Enzyme Activity [48]: 88.60%

O=C(O)CCC(CC(=O)O)(C(=O)O)P(=O)(O)O (centres unmarked) [PBTC, Phosphonebutane tricarboxylic acid]
Relative Protease Enzyme Activity [1]: 100.00% | Relative Protease Enzyme Activity [2]: 11.99% | Relative Protease Enzyme Activity [3]: 3.18% | Relative Protease Enzyme Activity [4]: −0.81% | Relative Protease Enzyme Activity [5]: −1.79% | Relative Protease Enzyme Activity [6]: −1.94% | Relative Protease Enzyme Activity [7]: −1.57% | Relative Protease Enzyme Activity [8]: −1.11% | Relative Protease Enzyme Activity [9]: −1.04% | Relative Protease Enzyme Activity [10]: −2.62% | Relative Protease Enzyme Activity [11]: −3.07% | Relative Protease Enzyme Activity [12]: −2.02% | Relative Protease Enzyme Activity [13]: 100.00% | Relative Protease Enzyme Activity [14]: 52.04% | Relative Protease Enzyme Activity [15]: 30.98% | Relative Protease Enzyme Activity [16]: 14.75% | Relative Protease Enzyme Activity [17]: 7.33% | Relative Protease Enzyme Activity [18]: 5.15% | Relative Protease Enzyme Activity [19]: 4.01% | Relative Protease Enzyme Activity [20]: 2.91% | Relative Protease Enzyme Activity [21]: 2.21% | Relative Protease Enzyme Activity [22]: 1.52% | Relative Protease Enzyme Activity [23]: 1.01% | Relative Protease Enzyme Activity [24]: 0.63% | Relative Protease Enzyme Activity [25]: 100.00% | Relative Protease Enzyme Activity [26]: 60.27% | Relative Protease Enzyme Activity [27]: 35.81% | Relative Protease Enzyme Activity [28]: 16.27% | Relative Protease Enzyme Activity [29]: 7.44% | Relative Protease Enzyme Activity [30]: 4.84% | Relative Protease Enzyme Activity [31]: 2.96% | Relative Protease Enzyme Activity [32]: 1.76% | Relative Protease Enzyme Activity [33]: 1.32% | Relative Protease Enzyme Activity [34]: 0.91% | Relative Protease Enzyme Activity [35]: 0.70% | Relative Protease Enzyme Activity [36]: 0.39% | Relative Protease Enzyme Activity [37]: 100.00% | Relative Protease Enzyme Activity [38]: 86.68% | Relative Protease Enzyme Activity [39]: 55.40% | Relative Protease Enzyme Activity [40]: 23.91% | Relative Protease Enzyme Activity [41]: 8.20% | Relative Protease Enzyme Activity [42]: 4.68% | Relative Protease Enzyme Activity [43]: 2.99% | Relative Protease Enzyme Activity [44]: 2.04% | Relative Protease Enzyme Activity [45]: 1.54% | Relative Protease Enzyme Activity [46]: 1.01% | Relative Protease Enzyme Activity [47]: 0.73% | Relative Protease Enzyme Activity [48]: 0.42% | enzyme activity of amine salt of the phosphonate versus non-neutralized phosphonate (phosphonate neutralized with an amine, such as triethanolamine): much improved enzyme activity
